These results are taken from ChEMBL document CHEMBL1124243, “Application of the message-address concept in the design of highly potent and selective non-peptide delta opioid receptor antagonists” (J Med Chem, 1988).

Assay [1] has as its target Delta-type opioid receptor (Mus musculus) (UniProt P32300). The assay can be described thus: Antagonistic activity against Opioid receptor delta 1 using [D-Ala2,D-Leu5]enkephalin in mouse vas deferens preparation. The assay is classed as functional.
Assay [2] concerns the target Mu-type opioid receptor (Cavia porcellus) (UniProt P97266). The assay is described as follows: Antagonistic activity against Opioid receptor mu 1 using morphine in guinea pig ileum preparation. The format is functional, tissue-based.
Assay [3] addresses Kappa-type opioid receptor (Cavia porcellus) (UniProt P41144). The assay can be described thus: Antagonistic activity against Opioid receptor kappa 1 using ethylketazocine in guinea pig ileum preparation. The assay is classed as functional, tissue-based.
Assay [4] concerns the target Mu-type opioid receptor (Cavia porcellus) (UniProt P97266). As to conditions: Ileum.
Description: Antagonistic activity against Opioid receptor mu 1 receptor using morphine in guinea pig ileum preparation
For assay [5] the target is unchanged. The assay can be described thus: Antagonistic activity against Opioid receptor mu 1 using morphine in guinea pig ileum preparation; D means no significant antagonism at 200 nM. The assay is classed as functional, tissue-based.
In assay [6] the target is Kappa-type opioid receptor (Cavia porcellus) (UniProt P41144). The assay can be described thus: Antagonistic activity against Opioid receptor kappa 1 using ethylketazocine in guinea pig ileum preparation; No significant antagonism at 200 nM. The format is functional, tissue-based.
Chain of Kappa-type opioid receptor (Cavia porcellus) (P41144 whole entry): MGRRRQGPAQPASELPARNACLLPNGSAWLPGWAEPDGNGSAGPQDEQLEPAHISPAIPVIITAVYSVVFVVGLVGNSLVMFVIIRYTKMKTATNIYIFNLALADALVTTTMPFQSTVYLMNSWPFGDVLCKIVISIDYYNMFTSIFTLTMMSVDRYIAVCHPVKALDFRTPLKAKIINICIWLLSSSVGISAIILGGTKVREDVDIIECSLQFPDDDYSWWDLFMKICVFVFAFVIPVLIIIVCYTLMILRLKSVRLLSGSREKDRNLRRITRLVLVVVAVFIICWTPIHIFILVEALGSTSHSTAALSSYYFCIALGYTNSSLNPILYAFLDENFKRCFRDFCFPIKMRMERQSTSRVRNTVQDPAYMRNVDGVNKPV

The source made the active and inactive calls. No cut-off for these calls is given here.

Chain of Mu-type opioid receptor (Cavia porcellus) (P97266 whole entry): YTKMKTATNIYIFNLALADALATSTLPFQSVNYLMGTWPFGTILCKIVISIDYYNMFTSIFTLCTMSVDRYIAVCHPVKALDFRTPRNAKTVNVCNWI
Chain of Delta-type opioid receptor (Mus musculus) (P32300 whole entry): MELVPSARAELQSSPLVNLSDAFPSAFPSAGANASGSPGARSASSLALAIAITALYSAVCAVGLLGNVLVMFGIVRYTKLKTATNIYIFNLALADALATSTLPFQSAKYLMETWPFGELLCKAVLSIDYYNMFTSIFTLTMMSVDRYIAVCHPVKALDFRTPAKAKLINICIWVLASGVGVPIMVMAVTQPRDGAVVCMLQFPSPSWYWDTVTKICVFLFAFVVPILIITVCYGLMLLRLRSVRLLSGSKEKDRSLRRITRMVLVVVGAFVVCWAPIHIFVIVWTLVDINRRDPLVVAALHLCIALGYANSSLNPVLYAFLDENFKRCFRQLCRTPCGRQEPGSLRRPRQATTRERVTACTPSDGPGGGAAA

With `Oc1ccc2c3c1O[C@H]1c4oc5ccccc5c4C[C@@]4(O)[C@@H](C2)N(CC2CC2)CC[C@]314`, the Ke in assay [1] is 1.1 nM; in assay [2], 27 nM; in assay [3], 48 nM.
Consider `Oc1ccc2c3c1O[C@H]1c4[nH]c5ccc(F)cc5c4C[C@@]4(O)[C@@H](C2)N(CC2CC2)CC[C@]314`, for which the Ke in assay [1] was 2 nM; in assay [3], 46 nM; in assay [4], 61 nM.
In turn, `Cc1ccc2[nH]c3c(c2c1)C[C@@]1(O)[C@H]2Cc4ccc(O)c5c4[C@@]1(CCN2CC1CC1)[C@H]3O5` registered a Ke in assay [1] of 4.2 nM. Further, the Ke entry in assay [5] and in assay [6] was “inactive” each time.
With `Oc1ccc2c3c1O[C@H]1c4[nH]c5ccccc5c4C[C@@]4(O)[C@@H](C2)N(CC2CC2)CC[C@]314`, the Ke in assay [1] worked out at 0.21 nM; in assay [3], 58 nM; in assay [4], 32 nM.
Take `COc1ccc2[nH]c3c(c2c1)C[C@@]1(O)[C@H]2Cc4ccc(O)c5c4[C@@]1(CCN2CC1CC1)[C@H]3O5`: the Ke is 5.7 nM in assay [1], 63 nM in assay [2] and 13 nM in assay [3].
